Reference: patent publication US20150141460A1, “Anti-inflammatory Compositions” (Cambridge Enterprise Limited, priority 2007, published 2015)
Where two headings read alike, the source gives them in different places.

Tests used:
[1] = test system: MCP-1 induced migration of THP-1 cells; test: ChemoTx transwell migration assay, MCP-1 induced migration of THP-1 cells; type: cell-based; conditions: Homo sapiens
Protocol: FIGS. 6A-6F show representative dose response curves for the inhibition of chemokine-induced leukocyte migration in vitro, for each of the five compounds (I′) to (V) in the ChemoTx™ transwell migration assay. In each experiment, THP-1 cells were induced to migrate using a maximally effective dose of the chemokine MCP-1 in the presence or absence of various doses (from 10 pM to 1 μM) of each compound. An appropriate vehicle control was used in each experiment. The percentage inhibition of MCP-1 induced migration (calculated as the number of cells migrated in the presence of MCP-1 minus the number of cells migrated with MCP-1 omitted from the lower chamber) at each concentration of each test compound is shown as the mean of triplicate determinations, with whiskers representing SEM. The ED50 was estimated by linear interpolation of the presented graphs. The Y-axis of each graph represents the percentage inhibition of MCP-1 induced migration; the X-axis represents the concentration of test compound present in units of nM (0.01-1000).
In principle, this assay consists of two chambers separated by a porous membrane. The chemoattractant is placed in the lower compartment and the cells are placed in the upper compartment. After incubation for a period at 37° C. the cells move towards the chemoattractant, and the number of cells in the lower compartment is proportional to the chemoattractant activity (relative to a series of controls).
The THP-1 cell line (European Cell Culture Collection) were used as the leukocyte cell population.
First, the cell suspension to be placed in the upper compartment is prepared. The THP-1 cells are pelleted by centrifugation (770×g; 4 mins) and washed with Geys Balanced Salt Solution with 1 mg/ml BSA (GBSS+BSA). This wash is then repeated, and the cells repelleted before being resuspended in a small volume of GBSS+BSA for counting, for example using a standard haemocytometer.
The volume of GBSS+BSA is then adjusted depending on the number of cells present so that the cells are at final density of 4.45×10^6 cells per ml of GBSS+BSA. This ensures that there are […] THP-1 cells in each 25 μl of the solution that will be placed in the upper chamber of the plate.
To test a single compound for its ability to inhibit chemokine induced migration, it is necessary to prepare two lots of cells. The suspension of THP-1 cells at 4.45×10^6 cells/ml is divided into two pots. To one pot the inhibitor under test is added at an appropriate final concentration, in an appropriate vehicle (for example at 1 μM in not more than 1% DMSO). To the second pot an equal volume of GBSS+BSA plus vehicle as appropriate (e.g. not more than 1% DMSO) is added to act as a control.
Next, the chemoattractant solution to be placed in the lower compartment is prepared. […]

[2] = Identification of the primary metabolites in pooled rat urine by LC-MS-MS; type: in vivo; conditions: single oral dose 3 mg/kg in 1% CMC, pooled urine over 24 hrs, qualitative
Protocol: (§1) Urine was collected from rats exposed to a single oral dose (3 mg/kg in 1% CMC) of each compound over a 24 hour period in metabolic cages. The pooled urine sample was then subjected to full scan mass spectral analysis, using the same LC-MS conditions as described in example 1 above. Further MS-MS analysis of the product ions was then performed, and likely fragmentations/re-arrangements assigned from the publicly available Metabolite ID database.
For the major metabolites, the assigned structures were confirmed by synthesis of authentic samples, using methods well known in the art, which were subject to LC-MS-MS analysis under the same conditions as the urine samples.
Note that metabolite ID studies provide only qualitative estimates of the relative amounts of the different metabolites present, and separately validated assays with appropriate internal standards would be required to quantitate each metabolite species.

[3] = Distribution of unchanged compound into tissues and urine 24 hrs after a single dose in rat; type: in vivo; conditions: for Urine (ng/ml) unchanged parent compound: 24 hrs after a single oral dose 3 mg/kg in 1% CMC
Protocol: as §1
To provide a quantitative estimate of the degree of metabolism suffered by each of the compounds tested, the amount of unchanged parent compound in urine was measured using the same validated LC-MS assay described in example 1, using (S)-3-(2′,2′-dimethylpropanoylamino)-caprolactam as an internal standard. In addition, the level of compounds in various target tissues was also determined.

[4] = THP-1 cell line, maximal dose of chemoattractant, Table 6, read-out: ED50 MCP-1 induced migration
[5] = THP-1 cells, Table 5, read-out: Functional ED50 versus MCP-1

| SMILES | EC50 [1, 4] [nM] | EC50 [1, 5] [nM] | major metabolites / route of metabolism detected in urine [2] | Urine (ng/ml) unchanged parent compound [3] [ng/mL] | unchanged parent compound recovered in urine, % of the injected dose ([3]; single oral dose 3 mg/kg in 1% CMC, 24 hrs) |
| --- | --- | --- | --- | --- | --- |
| CC(C)(C)C(=O)N[C@H]1CCCNC1=O [Compound (I′), (S)-3-(2′,2′-dimethylpropanoylamino)-tetrahydropyridin-2-one] | 0.05 | 0.05 | no significant metabolites | 24567 | more than 60% |
| O=C1NCCCC[C@@H]1NC(=O)C12CC3CC(CC(O)(C3)C1)C2 [Compound (V), 3-(3′-hydroxyadamantyl-1-carbonylamino)-caprolactam] | 0.12 | 0.12 | the glucuronidated compound was the major metabolite | 16300 | – |
